{"source": "patent US9732088B2", "about": "“C2-carbocyclic iminothiazine dioxides as BACE inhibitors, compositions, and their use” (Merck Sharp & Dohme Corp., priority 2014, dated 2017)", "key": {"BACE-1": {"target": "BACE-1 (Homo sapiens (Human), UniProt P56817)", "sequence (P56817 46-501)": "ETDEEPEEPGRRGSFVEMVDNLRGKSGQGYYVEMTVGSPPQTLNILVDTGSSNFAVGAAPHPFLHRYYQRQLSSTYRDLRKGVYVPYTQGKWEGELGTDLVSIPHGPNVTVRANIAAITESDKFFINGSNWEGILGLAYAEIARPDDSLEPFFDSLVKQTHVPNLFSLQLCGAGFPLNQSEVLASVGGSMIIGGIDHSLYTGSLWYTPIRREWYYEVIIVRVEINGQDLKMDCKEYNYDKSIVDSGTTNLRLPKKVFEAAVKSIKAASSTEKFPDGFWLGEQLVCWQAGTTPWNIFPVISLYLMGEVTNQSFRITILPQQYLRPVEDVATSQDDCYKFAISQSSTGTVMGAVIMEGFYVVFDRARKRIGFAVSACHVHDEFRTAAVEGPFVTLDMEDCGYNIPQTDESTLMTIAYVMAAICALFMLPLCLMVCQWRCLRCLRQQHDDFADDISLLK", "experiment": "BACE-1 Cellular Assay (Aβ in HEK293-APPswe/lon cells)", "format": "cell-based", "details": "4 hours", "method_in_brief": "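HEK293 cells stably expressing human APP with Swedish and London FAD mutations, cultured at 37° C., 5% CO2. Aβ40 or Aβ42 in conditioned media measured by electrochemiluminescent ELISA (WO2 capture; G2-10 or G2-11 detection). IC50 from variable-slope sigmoidal fit of signal versus compound concentration.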"}, "HepG2 cells": {"test_system": "HepG2 cells", "experiment": "In Vitro Phospholipidosis Assay", "format": "cell-based", "details": "20 μM, 24 hours, normalized to DMSO", "source_text": "[formula] Assay 7: In Vitro Phospholipidosis Assay\nDrug-induced phospholipidosis (PL) is characterized by intracellular accumulation of phospholipids with lamellular bodies, and may result from impaired phospholipid metabolism in the lysosome (Anderson et al., 2006, FEBS Letter, 580, 5533-5540), and many compounds known to cause drug-induced PL are also associated with adverse drug reactions. Using a method described in the literature (Bhandari et al., 2008, Assay and Drug Dev. Tech., 6(3), 407-419), an in vitro cellular assay can provide data that can determine the PL potential of test compounds. In this assay, compounds that lower values for mean inclusion count of a fluorescent phospholipid (described below) versus control are associated with reduced potential for PL.\nHepG2 cells were dispensed into 96-well collagen I coated plates at an initial density of 2.0×10^5 cells in 200 μL complete culturing medium (MEM Media w/Earle's Balanced Salt Solution supplemented with 10 IU penicillin, 10 μg/mL streptomycin, and 10% heat inactivated fetal bovine serum). Cells were incubated overnight at 37° C. with 5% CO2, 89% humidity prior to treatment.\nA solution of fluorescently labeled phospholipid N-(7-nitrobenz-2-oxa-1,3-diazol-4-yl)-1,2-dihexadecanoyl-sn-glycero-3-phosphoethanolamine (NBD-PE) was prepared at a concentration of 10 mM in absolute ethanol. Dissolution of the NBD-PE was facilitated by sonication in a room temperature water bath for 30 minutes. NBD-PE medium was prepared by diluting NBD-PE stock to a final concentration of 50 μM in complete culturing medium, filtering (pore size, 0.22 μm) prior to use.\nCompound treatment stocks were prepared in dimethyl sulfoxide at 500× final concentrations. Working treatment solutions were prepared by diluting compound stocks into NBD-PE medium with DMSO serving as the vehicle control. Treatment concentration was 20 μM. Amiodarone ((2-{4-[(2-butyl-1-benzofuran-3-yl)carbonyl]-2,6-diiodophenoxy}ethyl)diethylamine) served as the assay positive control at the same concentration. All treatments were tested in triplicate for 24 hours.\nFollowing treatment, cultures were rinsed once with Hank's Balanced Salt Solution (HBSS) containing no phenol red. Cultures were then incubated for 30 minutes at 37° C. with […] Hoechst 33342 nuclear stain and […] cell tracker orange cytoplasm stain. After incubation, cells were rinsed once with HBSS and then fixed in 2% formalin solution.\nCultures were imaged using the IN Cell Analyzer 2000 imaging system. One set of images were acquired with the 4× objective using the appropriate Hoechst filter settings to acquire a full-well cell count. Another set of images were acquired to evaluate treatment-related phospholipidosis with the 20× objective.\nImages were analyzed using custom algorithms created in the IN Cell Workstation software using NBD-PE inclusion count in the cell cytoplasm as and endpoint associated with phospholipidosis. Data were expressed as fold over control, normalized to the DMSO vehicle control response."}, "[1]": {"target": "soluble human BACE-1 catalytic domain (Homo sapiens (Human), UniProt P56817)", "sequence (P56817 75-416)": "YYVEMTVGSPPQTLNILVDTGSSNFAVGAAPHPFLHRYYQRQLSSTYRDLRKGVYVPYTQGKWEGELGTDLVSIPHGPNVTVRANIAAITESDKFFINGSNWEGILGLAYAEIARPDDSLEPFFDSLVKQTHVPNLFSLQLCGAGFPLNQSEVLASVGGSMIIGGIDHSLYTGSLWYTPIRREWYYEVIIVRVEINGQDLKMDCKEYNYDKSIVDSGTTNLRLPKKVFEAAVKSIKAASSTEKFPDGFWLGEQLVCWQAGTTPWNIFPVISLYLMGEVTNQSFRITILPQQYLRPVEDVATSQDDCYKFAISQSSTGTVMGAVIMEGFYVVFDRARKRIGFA", "experiment": "BACE-1 Ki Assay (BACE-1 HTRF FRET Assay)", "format": "biochemical", "details": "Assay 1; Ki calculated from IC50 by Cheng-Prusoff", "experimental": "Assay 1: BACE-1 Ki Assay (BACE-1 HTRF FRET Assay)\nThe compounds of the invention were determined to be potent inhibitors of BACE-1 using the following assay.\nThe following reagents were used in this assay. Na^+-Acetate pH 5.0; 1% Brij-35; Glycerol; Dimethyl Sulfoxide (DMSO); Recombinant human soluble BACE-1 catalytic domain (>95% pure); APP Swedish mutant peptide substrate (QSY7-APP^swe-Eu): QSY7-[…]-Europium-amide.\nA homogeneous time-resolved FRET assay can be used to determine IC50 values for inhibitors of the soluble human BACE-1 catalytic domain. This assay monitors the increase of 620 nm fluorescence that resulted from BACE-1 cleavage of an APPswedish APP^swe mutant peptide FRET substrate (QSY7-[…]-Europium-amide). This substrate contains an N-terminal QSY7 moiety that serves as a quencher of the C-terminal Europium fluorophore (620 nm Em). In the absence of enzyme activity, 620 nm fluorescence is low in the assay and increased linearly over 3 hours in the presence of uninhibited BACE-1 enzyme. Inhibition of BACE-1 cleavage of the QSY7-APP^swe-Eu substrate by inhibitors is manifested as a suppression of 620 nm fluorescence.\nVarying concentrations of inhibitors at 3× the final desired concentration in a volume of […] are preincubated with purified human BACE-1 catalytic domain (3 nM in 10 μl) for 30 minutes at 30° C. in reaction buffer containing 20 mM Na-Acetate pH 5.0, 10% glycerol, 0.1% Brij-35 and 7.5% DSMO. Reactions are initiated by addition of 10 μl of 600 nM QSY7-APP^swe-Eu substrate (200 nM final) to give a final reaction volume of 30 μl in a 384 well Nunc HTRF plate. The reactions are incubated at 30° C. for 1.5 hours. The 620 nm fluorescence is then read on a Rubystar HTRF plate reader (BMG Labtechnologies) using a […] delay followed by a 400 millisecond acquisition time window. Inhibitor IC50 values are derived from non-linear regression analysis of concentration response curves. Ki values are then calculated from IC50 values using the Cheng-Prusoff equation using a previously determined […] of 8 μM for the QSY7-APP^swe-Eu substrate at BACE-1. The example compounds of the invention were measured in this assay."}, "[2]": {"target": "purified human autoBACE-2 (Homo sapiens (Human), UniProt Q9Y5Z0)", "sequence (Q9Y5Z0 63-466)": "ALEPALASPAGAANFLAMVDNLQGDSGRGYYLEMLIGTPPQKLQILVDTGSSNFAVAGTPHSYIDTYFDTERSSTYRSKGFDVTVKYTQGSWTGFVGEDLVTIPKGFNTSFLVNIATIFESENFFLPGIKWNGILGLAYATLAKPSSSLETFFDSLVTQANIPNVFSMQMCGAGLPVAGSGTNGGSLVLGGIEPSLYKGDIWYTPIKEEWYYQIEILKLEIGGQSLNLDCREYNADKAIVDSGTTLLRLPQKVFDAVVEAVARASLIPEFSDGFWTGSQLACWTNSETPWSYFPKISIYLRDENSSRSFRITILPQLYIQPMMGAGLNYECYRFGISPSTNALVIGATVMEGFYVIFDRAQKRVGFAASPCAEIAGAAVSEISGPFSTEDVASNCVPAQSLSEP", "experiment": "BACE-2 Assay (BACE-HTRF assay)", "format": "biochemical", "details": "Assay 2; Ki calculated from IC50 by Cheng-Prusoff; read-out: BACE2 Ki", "experimental": "The compounds of the invention were determined to be potent inhibitors of BACE-2 using the following assay. Inhibitor IC50s at purified human autoBACE-2 are determined in a time-resolved endpoint proteolysis assay that measures hydrolysis of the QSY7-[…]-Eu-amide FRET peptide substrate (BACE-HTRF assay). BACE-mediated hydrolysis of this peptide results in an increase in relative fluorescence (RFU) at 620 nm after excitation with 320 nm light Inhibitor compounds, prepared at 3× the desired final concentration in 1×BACE assay buffer (20 mM sodium acetate pH 5.0, 10% glycerol, 0.1% Brij-35) supplemented with 7.5% DMSO are pre-incubated with an equal volume of autoBACE-2 enzyme diluted in 1×BACE assay buffer (final enzyme concentration 1 nM) in black 384-well NUNC plates for 30 minutes at 30° C. […] DMSO is present at […] final concentration in the assay. Following laser excitation of sample wells at 320 nm, the fluorescence signal at 620 nm is collected for 400 ms following a 50 μs delay on a RUBYstar HTRF plate reader (BMG Labtechnologies). Raw RFU data is normalized to maximum (1.0 nM BACE/DMSO) and minimum (no enzyme/DMSO) RFU values. IC50 values are determined by nonlinear regression analysis (sigmoidal dose response, variable slope) of percent inhibition data with minimum and maximum values set to 0 and 100 percent respectively. Similar IC50s are obtained when using raw RFU data. The Ki values are calculated from the IC50 using the Cheng-Prusoff equation."}, "[3]": {"target": "purified human Cathepsin-D (Homo sapiens (Human), UniProt P07339)", "sequence (P07339 65-412)": "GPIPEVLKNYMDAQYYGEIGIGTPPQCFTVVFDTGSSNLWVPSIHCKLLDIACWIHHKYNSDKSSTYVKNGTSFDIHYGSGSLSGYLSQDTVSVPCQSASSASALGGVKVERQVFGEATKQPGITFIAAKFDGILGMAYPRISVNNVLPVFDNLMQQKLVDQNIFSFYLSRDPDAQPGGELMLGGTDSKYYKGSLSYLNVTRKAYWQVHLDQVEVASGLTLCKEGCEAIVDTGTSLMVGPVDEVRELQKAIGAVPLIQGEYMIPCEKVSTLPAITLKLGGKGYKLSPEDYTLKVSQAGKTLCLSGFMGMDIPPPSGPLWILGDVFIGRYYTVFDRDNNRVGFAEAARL", "experiment": "Cathepsin-D Assay (time-resolved FRET)", "format": "biochemical", "details": "Assay 4; Ki calculated from IC50 by Cheng-Prusoff", "protocol": "Assay 4: Cathepsin-D Assay\nThis substrate contains an C-terminal QSY7 moiety that serves as a quencher of the N-terminal Europium fluorophore (620 nm Em). In the absence of enzyme activity, 620 nm fluorescence is low in the assay and increased linearly over 1 hour in the presence of uninhibited Cathepsin-D enzyme. Inhibition of Cathespin D cleavage of the Eu-Aspartyl Protease-QSY7 substrate by inhibitors is manifested as a suppression of 620 nm fluorescence.\nVarying concentrations of inhibitors in a volume of 100 nl are preincubated with purified human Cathepsin-D (0.1 nM in 10 μl) for 30 minutes at 30° C. in reaction buffer containing 100 mM Na-Acetate pH 5.0, and 0.02% Brij-35. Reactions are initiated by addition of 10 μl of 100 nM Eu-Aspartyl Protease-QSY7 substrate (50 nM final) to give a final reaction volume of 20 μl in a 384 well Nunc HTRF plate. The reactions are incubated at 30° C. for 30 minutes. The 620 nm fluorescence is then read on a Envision Multilabel plate reader (Perkin-Elmer) using a 200 microsecond delay followed by a 400 microsecond acquisition time window. Inhibitor IC50 values are derived from non-linear regression analysis of concentration response curves."}}, "data": [{"smiles": "COc1cnc2c(Nc3ccc(F)c([C@]4(C)CS(=O)(=O)[C@@](CF)(C5CC5)C(N)=N4)c3)nccc2c1", "note": "[Example 7, N-{3-[(3R,6S)-6-cyclopropyl-6-(fluoromethyl)-5-imino-3-methyl-1,1-dioxidothiomorpholin-3-yl]-4-fluorophenyl}-3-methoxy-1,7-naphthyridin-8 amine]", "values": [{"measurement": "IC50", "setting": "BACE-1", "value": 132, "unit": "nM"}, {"measurement": "In Vitro Phospholipidosis Assay: Mean NBD-PE Inclusion Count (Fold over control)", "setting": "HepG2 cells", "value": 1.9, "unit": "Fold over control"}, {"measurement": "Ki", "setting": "[1]", "value": 7.1, "unit": "nM"}, {"measurement": "Ki", "setting": "[2]", "value": 3.6, "unit": "nM"}, {"measurement": "Ki", "setting": "[3]", "value": 1120, "unit": "nM"}]}]}
